According to patent publication US6140367A, “Use of ethylene diamine disuccinate for preparing a medicament with antiviral properties” (priority 1996, dated 2000):
Values after ≈ are worked out from the molar mass of the structure shown. “Also recorded” adds a separate entry of the source. Read-outs that look alike come from different tables or passages of the source.

Columns and labels:
[1] = test system: cytomegaloviruses (CMV laboratory strain AD169); experiment: ELISA of production of CMV late antigens in HFF cells; type: cell-based; conditions: for therapeutic index: quotient TC50/IC50, HFF cells
Experimental: Antiviral activity: cells and viruses employed
(§1) Human foreskin fibroblasts (HFF) are grown in a nutrient medium consisting of Eagle's minimal essential medium (EMEM) to which 10% fetal calf serum has been added.
The CMV laboratory strain AD169 is used. The viruses are propagated in EMEM nutrient medium to which 4% fetal calf serum has been added (maintenance medium). The virus titer is established by determining so-called immediate early antigen forming units (IEFUs) which are formed in the maintenance medium (Gerna et al. (1992), Antiviral Res. Vol. 19: 333-345).
The antiviral effect of the substances on the propagation of cytomegaloviruses is determined by different parameters:
In an ELISA (enzyme-linked immunosorbent assay), the production of CMV late antigens is determined. […] The substances according to the invention have an IC50 value of 4 μg/ml±1 μg/ml.

[2] = in vitro; type: cell-based; conditions: human, hff cells
Experimental: as §1
(§2) The cell vitality is measured in an HFF cell culture using an MTT assay. The result is expressed as the TC50 value, which is the concentration at which 50% of the cells tested are still vital. In HFF cells, it is 435 μg/ml for the substances according to the invention.

[3] = test system: lymphocyte proliferation; experiment: phytohemagglutinin stimulated lymphocyte proliferation ([3H]-thymidine); type: cell-based
Experimental: For a proliferation assay, lymphocyte cultures were started in mixed lymphocyte cultures (MLC), or with 1% phytohemagglutinin (PHA), in a total volume of 200 μl of culture medium. 18 to 20 hours before the measurement, 0.1 μCi methyl-[^3 H]-thymidine (NEN, Germany) was added. Radiolabeled DNA was harvested on filter membranes (Schleicher & Schull, Germany). The radioactivity was quantified with a scintillation counter (Zinsser, Germany). The sample PBL pertains to peripheral blood lymphocytes as a control.

[4] = test system: phospholipase C; conditions: cited from earlier work
[5] = test system: phospholipase D; conditions: cited from earlier work
[6] = test system: antibody production; conditions: intraperitoneal, mice; cited from earlier work
[7] = test system: DTH (delayed type hypersensitivity) reaction; conditions: intraperitoneal, mice; cited from earlier work
[8] = test system: B cells; conditions: in vitro; cited from earlier work
[9] = test system: T cells; conditions: in vitro; cited from earlier work
[10] = cited from earlier work
[11] = test system: Human foreskin fibroblasts (HFF); experiment: in vitro; type: cell-based; conditions: hff cells
Experimental: as §1, §2

[12] = test system: Herpes simplex viruses; conditions: literature; cited from earlier work
[13] = test system: Varicella zoster viruses; conditions: literature; cited from earlier work
[14] = test system: Epstein-Barr viruses; conditions: literature; cited from earlier work
[15] = test system: human cytomegaloviruses; conditions: literature; cited from earlier work
[16] = test system: hepatitis viruses; conditions: literature, cell cultures; cited from earlier work
[17] = test system: viral DNA polymerases; conditions: cited from earlier work
[18] = test system: viral reverse transcriptases; conditions: cited from earlier work
[19] = literature; cited from earlier work
[20] = mouse, in vivo; cited from earlier work
[21] = Human betaherpesvirus 5, AD169, production of CMV late antigens, ELISA, HFF cells, read-out: inhibitory concentration IC50
[22] = production of CMV late antigens, ELISA, HFF cells

Q: What does the source list for `O=C(O)C[C@@H](NCCN[C@H](CC(=O)O)C(=O)O)C(=O)O` [(R,R)-N,N'-ethylenediamine disuccinate]?
A: IC50 [1, 21]: 41 µg/mL; therapeutic index [1]: ≥ 2.2; CC50 [2]: ≥ 100 µg/mL

Q: With `O=C(O)C[C@H](NCCN[C@H](CC(=O)O)C(=O)O)C(=O)O` [(R,S)-N,N'-ethylenediamine disuccinate] as the compound, how does the IC50 [1, 21] read?
A: The IC50 was 46 µg/mL.

Q: What about the therapeutic index [1] of the same compound?
A: Its therapeutic index is ≥ 2.2.

Q: What about the CC50 [2] of the same compound?
A: The CC50 was ≥ 100 µg/mL.

Q: With `O=C(O)CC[C@H](NCCN[C@@H](CCC(=O)O)C(=O)O)C(=O)O` [(S,S)-N,N'-ethylenediamine diglutamate] as the compound, how does the IC50 [1, 21] read?
A: The IC50 was ≥ 100 µg/mL.

Q: And the CC50 [2]?
A: The CC50 was ≥ 100 µg/mL.

Q: With `O=C(O)C[C@H](NCCN[C@@H](CC(=O)O)C(=O)O)C(=O)O` [(S,S)-N,N'-ethylenediamine disuccinate] as the compound, how does the IC50 ([1]; Human betaherpesvirus 5, AD169, HFF, activity against cytomegaloviruses, read-out: IC50) read?
A: The IC50 was 4 µg/mL.

Q: And the therapeutic index [1]?
A: The therapeutic index was 109.

Q: And the CC50 [2]?
A: Its CC50 is 435 µg/mL.

Q: And the immunosuppressive activity [3]?
A: The immunosuppressive activity was “inhibition of phytohemagglutinin stimulated lymphocyte proliferation”.

Q: What about the “inhibition of phospholipase C” value [4] of the same compound?
A: Its value is “inhibits”.

Q: And the “inhibition of phospholipase D” value [5]?
A: The value was “inhibits”.

Q: And the antibody production [6]?
A: The antibody production was “suppressed”.

Q: And the “DTH (delayed type hypersensitivity) reaction” value [7]?
A: The value was “suppressed”.

Q: What about the “blastogenesis of B cells” value [8] of the same compound?
A: Its value is “suppressed”.

Q: And the “blastogenesis of T cells” value [9]?
A: Its value is “suppressed”.

Q: What about the toxicity in mice [10] of the same compound?
A: Its toxicity in mice is “relatively low”.

Q: With `CC(CN[C@@H](CCC(=O)O)C(=O)O)N[C@@H](CCC(=O)O)C(=O)O` (stereo partly drawn) [(S,S)-N,N'-propylenediamine diglutamate] as the compound, how does the “inhibitory concentration IC50” value [1, 22] read?
A: Its value is ≥ 100 µg/mL.

Q: What about the “toxic concentration TC50” value [11] of the same compound?
A: The value was ≥ 100 µg/mL.

Q: With `CC(CN[C@@H](CC(=O)O)C(=O)O)N[C@@H](CC(=O)O)C(=O)O` (stereo partly drawn) [(S,S)-N,N'-propylenediamine disuccinate] as the compound, how does the “inhibitory concentration IC50” value [1, 22] read?
A: Its value is ≥ 100 µg/mL.

Q: What about the “toxic concentration TC50” value [11] of the same compound?
A: Its value is ≥ 100 µg/mL.

Q: Which results are given for `O=C(O)P(=O)(O)O` [Foscarnet]?
A: antiviral activity, Herpes simplex viruses [12]: selective activity; antiviral activity, Varicella zoster viruses [13]: selective activity; antiviral activity, Epstein-Barr viruses [14]: selective activity; antiviral activity, cytomegaloviruses [15]: virostatic effect; resistance of cytomegaloviruses [15]: more resistant; antiviral activity, hepatitis viruses [16]: selective activity; inhibition of viral DNA polymerases [17]: inhibition; inhibition of viral reverse transcriptases [18]: inhibition

Q: Which results are given for `Nc1nc(O)c2ncn(COC(CO)CO)c2n1` [Ganciclovir]?
A: antiviral activity, Herpes simplex viruses [12]: effective; antiviral activity, Varicella zoster viruses [13]: effective; antiviral activity, Epstein-Barr viruses [14]: effective; resistance of cytomegaloviruses [15]: more resistant; toxicity / side effects [19]: high side-effect level; also recorded: leads to neutropenia; tumor development [20]: observed to develop tumors

Q: With `CC(=O)N(O)CCCCCNC(=O)CCC(=O)N(O)CCCCCNC(=O)CCC(=O)N(O)CCCCCN` [desferrioxamine] as the compound, how does the IC50 [1, 21] read?
A: The IC50 was 4.1 µg/mL (≈ 7.31 µM).

Q: What about the therapeutic index [1] of the same compound?
A: Its therapeutic index is 3.

Q: And the CC50 [2]?
A: The CC50 was 12 µg/mL (≈ 21.4 µM).

Q: What about the “antiviral activity, Herpes simplex viruses” value [12] of the same compound?
A: Its value is “successfully used”.

Q: And the “antiviral activity, Varicella zoster viruses” value [13]?
A: The value was “successfully used”.

Q: And the “antiviral activity, Epstein-Barr viruses” value [14]?
A: Its value is “successfully used”.

Q: What about the “antiviral activity, cytomegaloviruses” value [15] of the same compound?
A: The value was “successfully used”.

Q: What about the “toxicity / side effects” value [19] of the same compound?
A: Its value is “low toxicity”.

Q: What does the source list for `O=C(O)CN(CCN(CC(=O)O)CC(=O)O)CCN(CC(=O)O)CC(=O)O` [diethylenetriaminepentaacetic acid]?
A: IC50 [1, 21]: 4 µg/mL (≈ 10.2 µM); therapeutic index [1]: 31; CC50 [2]: 123 µg/mL (≈ 313 µM)

Q: Which “inhibitory concentration IC50” value [1, 22] does the source give for (R,R)-N,N'-propylenediamine disuccinate here?
A: Its value is ≥ 100 µg/mL.

Q: What about the “toxic concentration TC50” value [11] of the same compound?
A: The value was ≥ 100 µg/mL.
